In brackets after ≈: the same amount, converted by molar mass. Several values for one entry are separate records, joined by “and”; a condition that tells them apart may be missing. Equal values may be shown once. Read-outs that look alike come from different tables or passages of the source.
Key:
[1] = Activity of degradation impurity relative to compound of formula (I); details: fraction of parent activity
Experimental: [drawing 4] the impurity having an activity which is 1/300 of that of the compound of formula (I). […] Whether the stability is good or not is also a key factor in selecting the crystal form of the compound. Accordingly, it is preferred in the present invention that the hydrobromide of the compound of the formula (I) is present in the form of α crystal form. […] In the differential scanning calorimetry of the α crystal form, there is a melting endothermic peak at 170° C.±2° C. Therefore, in the present invention, the structure of the α crystal form is defined by the above-mentioned powder diffraction characteristic peaks and DSC melting peak, and on the basis of this definition, the α crystal form can be clearly distinguished from other three crystal forms.

[2] = Solubility in water of screened salts (Table 2)
Description: (§1) In order to achieve the above water solubility goal, the inventors have conducted studies from various aspects, e.g., crystal forms of existing salts, preparation excipients, formation of new salt types, etc., hoping to find a feasible means that can improve water solubility while ensuring better druggability.

[3] = Hygroscopicity of screened salts (Table 2); format: physicochemical
Description: as §1

[4] = prior art information; cited from earlier work
[5] = cited from earlier work
[6] = statement of CN103221414B / CN201280003321.6, cited from earlier work
[7] = 40 degrees, RH75% closed, 4 weeks
[8] = 40 degrees, RH75% closed and 60 degrees open, 34 days

Cc1cnc2n1-c1ccc(Br)cc1C(c1ccccn1)=N[C@H]2CCC(=O)O
activity relative to that of the compound of formula (I) [1]: 1/300

COC(=O)CC[C@@H]1N=C(c2ccccn2)c2cc(Br)ccc2-n2c(C)cnc21
solubility ([2]; water): > 100 mg/mL

O=S(=O)(O)c1cccc2c(S(=O)(=O)O)cccc12 [1,5-naphthalene disulfonate]
Hygroscopicity (%) [3]: 15.9% | Solubility in water [2]: 1 mg/mL

COC(=O)CC[C@@H]1N=C(c2ccccn2)c2cc(Br)ccc2-n2c(C)cnc21.O=S(=O)(O)O [(bi)sulfate form 1]
Hygroscopicity (%) [3]: 0.1%

COC(=O)CC[C@@H]1N=C(c2ccccn2)c2cc(Br)ccc2-n2c(C)cnc21.O=S(=O)(O)O [(bi)sulfate form 2]
Hygroscopicity (%) [3]: 24.9% | Solubility in water [2]: >100 mg/mL

COC(=O)CC[C@@H]1N=C(c2ccccn2)c2cc(Br)ccc2-n2c(C)cnc21.Cl [Hydrochloride]
Hygroscopicity (%) [3]: 2.8% | Solubility in water [2]: >100 mg/mL

COC(=O)CC[C@@H]1N=C(c2ccccn2)c2cc(Br)ccc2-n2c(C)cnc21.O=S(=O)(O)c1ccccc1 [Remimazolam besylate]
Solubility in water [4]: 8.3 mg/mL | degradation [5, 7]: 0.5%

COC(=O)CC[C@@H]1N=C(c2ccccn2)c2cc(Br)ccc2-n2c(C)cnc21 [Remimazolam esylate]
Solubility in water [4]: 7.8 mg/mL (≈ 17.8 mM) | degradation [5, 7]: 0.2%

COC(=O)CC[C@@H]1N=C(c2ccccn2)c2cc(Br)ccc2-n2c(C)cnc21.Cc1ccc(S(=O)(=O)O)cc1 [Remimazolam tosylate]
Solubility in water [4]: ~10 mg/mL and ~11 mg/mL | toxicity compared with besylate / benzene sulfonic acid [6]: less toxic than benzene sulfonic acid | toxicity compared with besylate / benzene sulfonic acid ([6]; listed as tosylate of the compound of the formula (I)): less toxic than besylate

COC(=O)CC[C@@H]1N=C(c2ccccn2)c2cc(Br)ccc2-n2c(C)cnc21 [Remimazolam, methyl 3-[(4s)-8-bromo-1-methyl-6-(2-pyridyl)-4H-imidazol[1,2-a][1,4]benzodiazepine-4-yl] propionate]
Hygroscopicity (%) ([3]; listed as Free base): 1.7% | Solubility in water [4]: Almost insoluble in water | Solubility in water (mg/mL) [2]: almost | appearance change [5, 8]: yellowing at 40 degrees, RH75% closed and 60 degrees | degradation [5, 8]: 1.5-8% | stability of sample ([5]; 40° C./75% relative humidity (open), reported in CN101501019): deliquescent, discolored, and significantly reduced in content

COC(=O)CC[C@@H]1N=C(c2ccccn2)c2cc(Br)ccc2-n2c(C)cnc21 [crystal form 1]
Hygroscopicity (%) ([3]; listed as Hydrobromide crystal form 1): 4.6% | Solubility in water [2]: >100 mg/mL

COC(=O)CC[C@@H]1N=C(c2ccccn2)c2cc(Br)ccc2-n2c(C)cnc21 [crystal form 2]
Solubility in water [2]: >100 mg/mL

COC(=O)CC[C@@H]1N=C(c2ccccn2)c2cc(Br)ccc2-n2c(C)cnc21 [crystal form 3]
Hygroscopicity (%) ([3]; listed as Hydrobromide crystal form 3): 5% | Solubility in water [2]: >100 mg/mL

COC(=O)CC[C@@H]1N=C(c2ccccn2)c2cc(Br)ccc2-n2c(C)cnc21 [α crystal form]
Hygroscopicity (%) ([3]; listed as Hydrobromide crystal form α): 2.5% | Solubility in water [2]: >100 mg/mL

From patent US10618904B2 (priority 2016, dated 2020)
